Measured values as given in patent US4175081A, “5-Substituted thiadiazole ureas” (priority 1977, dated 1979).

Tests used:
[1] = tested on: Cotton (CT); assay: Post-emergence herbicide test; assay type: in vivo, Gossypium hirsutum var. DPL smooth leaf; conditions: Gossypium hirsutum, post-emergence, 336 h, two weeks after treatment
Procedure, shortened: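 Cotton (Gossypium hirsutum var. DPL smooth leaf) was grown in 3' plastic pots of potting soil, four seeds per pot, planted at a depth equal to the seed diameter and watered by sub-irrigation. At the stage of expanded cotyledons with the first true leaf 1' long, plants were sprayed post-emergence in a hood with a fixed nozzle over a moving belt. Percent control was rated visually two weeks later.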

[2] = tested on: Yellow foxtail grass (YF); assay: Post-emergence herbicide test; assay type: in vivo, Setaria glauca; conditions: Setaria, 336 h, two weeks after treatment
Procedure, shortened: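 Potted seedlings grown in greenhouse, planting staggered to reach the target stage together, then sprayed post-emergence at 8 lbs actual compound/acre in 38 gallons/acre (4 lbs/acre formulations also prepared). Sub-irrigated afterwards. Injury or control rated visually two weeks after treatment.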

[3] = tested on: Bean (BN); assay: Pre-emergence herbicide test; assay type: in vivo, Phaseolus vulgaris var. Black Valentine; conditions: Phaseolus vulgaris, 336 h, two weeks after treatment
Procedure, shortened: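 Black Valentine bean was seeded in potting soil one day before spraying. Compound was applied pre-emergence at 8 lbs/acre (also 4 lbs/acre) in 38 gallons per acre. Plants were sub-irrigated and injury or control was rated visually after two weeks.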

[4] = tested on: Yellow foxtail grass (YF); assay: Pre-emergence herbicide test; assay type: in vivo, Setaria glauca; conditions: Setaria, 336 h, two weeks after treatment
Procedure, shortened: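 Seeds surface-sown in potting soil one day before spraying; compounds applied pre-emergence at 8 or 4 lbs/acre in 38 gallons/acre spray. Pots held in greenhouse with sub-irrigation only. Injury or control rated visually two weeks after treatment.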

[5] = tested on: Barnyard grass (BG); assay: Post-emergence herbicide test; assay type: in vivo; conditions: Echinochloa crus-galli, 336 h, two weeks after treatment
Procedure, shortened: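 Greenhouse pot-grown barnyard grass seedlings sprayed post-emergence at 8 lbs active compound per acre (some at 4 lbs/acre) in 38 gallons per acre, then sub-irrigated. Injury or control rated visually two weeks after treatment.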

[6] = tested on: Crabgrass (CG); assay: Post-emergence herbicide test; assay type: in vivo, Digitaria sanquinalis; conditions: Digitaria sanguinalis, post-emergence, 336 h, two weeks after treatment
Procedure, shortened: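 Crabgrass (Digitaria sanquinalis) was surface seeded individually in 3' plastic pots of potting soil, covered with screened soil, and watered by sub-irrigation in greenhouse trays. Planting was staggered so seedlings reached the target stage together. Post-emergence sprays were applied in a hood with a removable belt and fixed nozzle, and control was visually rated two weeks after treatment.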

[7] = tested on: Barnyard grass (BG); assay: Pre-emergence herbicide test; assay type: in vivo; conditions: Echinochloa crus-galli, 336 h, two weeks after treatment
Procedure, shortened: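 Barnyard grass surface-seeded in potting soil and sprayed pre-emergence one day after seeding, at 8 or 4 lb compound/acre in 38 gal/acre spray volume. Pots kept in greenhouse with sub-irrigation only; injury or control rated visually two weeks after treatment.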

[8] = tested on: Crabgrass (CG); assay: Pre-emergence herbicide test; assay type: in vivo, Digitaria sanquinalis; conditions: Digitaria sanguinalis, pre-emergence, 336 h, two weeks after treatment
Procedure, shortened: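 Crabgrass (Digitaria sanquinalis) was surface seeded in 3' plastic pots of potting soil, covered with screened soil, and watered by sub-irrigation in greenhouse trays. Pots were seeded one day before spraying in a hood with a moving belt and fixed nozzle. Plants stayed in the greenhouse on sub-irrigation, and pre-emergence control was rated visually two weeks after treatment.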

[9] = tested on: variety of crops and weed species; assay: Pre- and post-emergence herbicide tests, overall assessment of Tables III-VI; assay type: in vivo; conditions: data of Tables III-VI
Procedure, shortened: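 Crops and weeds grown in potting soil were sprayed at 8 lbs. compound per acre in 38 gallons per acre, pre-emergence pots seeded one day before treatment. Injury or control was visually rated two weeks after treatment.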

[10] = tested on: Amaranth pigweed (PW); assay: Post-emergence herbicide test; assay type: in vivo, Amaranthus retroflexus; conditions: 336 h, two weeks after treatment
Procedure, shortened: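 Pot-grown pigweed was sprayed post-emergence at the 1–2 true-leaf stage with compound at rates equivalent to 8 lbs per acre (formulations also prepared for 4 lbs/acre) in 38 gallons per acre, using a hood with fixed nozzle. Plants were sub-irrigated in the greenhouse, and injury or control was rated visually two weeks after treatment.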

[11] = tested on: Cotton (CT); assay: Pre-emergence herbicide test; assay type: in vivo, Gossypium hirsutum var. DPL smooth leaf; conditions: Gossypium hirsutum, 336 h, two weeks after treatment
Procedure, shortened: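 Crop and weed species seeded one day before treatment, then sprayed pre-emergence at 8 lbs actual compound per acre (also 4 lbs/acre formulations) in 38 gallons per acre. Pots kept in greenhouse with sub-irrigation only; injury or control visually rated two weeks after treatment.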

[12] = tested on: Johnson grass (JG); assay: Post-emergence herbicide test; assay type: in vivo, Sorgum helepense; conditions: Sorghum halepense, 336 h, two weeks after treatment
Procedure, shortened: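 Greenhouse pot-grown seedlings sprayed post-emergence at 8 lbs compound per acre (some at 4 lbs/acre) in 38 gallons per acre spray volume. Sub-irrigated thereafter. Injury/control rated visually two weeks after treatment.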

[13] = tested on: Corn (CN); assay: Pre-emergence herbicide test; assay type: in vivo; conditions: Zea mays, 336 h, two weeks after treatment
Procedure, shortened: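 Four corn seeds per pot, sown at seed-diameter depth one day before spraying, got soil surface treatment at 8 lbs/acre (4 lbs/acre formulations also prepared) in 38 gallons/acre. Pots were greenhouse-held with sub-irrigation only. Injury or control was scored visually two weeks after treatment.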

[14] = tested on: Corn (CN); assay: Post-emergence herbicide test; assay type: in vivo; conditions: Zea mays, 336 h, two weeks after treatment
Procedure, shortened: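 Greenhouse seedlings grown in potting soil and sprayed post-emergence at 8 lbs compound/acre (formulations also made for 4 lbs/acre) in 38 gallons/acre spray volume. Watering by sub-irrigation only. Injury or control rated visually two weeks after treatment.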

[15] = tested on: Johnson grass (JG); assay: Pre-emergence herbicide test; assay type: in vivo, Sorgum helepense; conditions: Sorghum halepense, 336 h, two weeks after treatment
Procedure, shortened: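 Pots seeded one day before spraying; compound applied pre-emergence at 8 lbs/acre (or 4 lbs/acre) in 38 gallons/acre spray volume. Sub-irrigated in greenhouse; injury/control rated visually two weeks after treatment.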

[16] = tested on: Amaranth pigweed (PW); assay: Pre-emergence herbicide test; assay type: in vivo, Amaranthus retroflexus; conditions: 336 h, two weeks after treatment
Procedure, shortened: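 Pigweed was surface-seeded in potted soil one day before spraying at 8 lbs compound per acre, or 4 lbs/acre, in 38 gallons per acre. Pots were kept in the greenhouse with sub-irrigation only; injury or control was rated visually two weeks after treatment.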

[17] = tested on: Bean (BN); assay: Post-emergence herbicide test; assay type: in vivo, Phaseolus vulgaris var. Black Valentine; conditions: Phaseolus vulgaris, post-emergence, 336 h, two weeks after treatment
Procedure, shortened: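 Snapbean (Phaseolus vulgaris var. Black Valentine) was tested post-emergence. Four seeds were sown in 3' plastic pots of potting soil at a depth equal to the seed diameter, then sub-irrigated in greenhouse trays. Planting dates were staggered so plants were sprayed once primary leaves had expanded, with the growing point at the primary leaf nodes.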

[18] = tested on: Turnip (TP); assay: Post-emergence herbicide test; assay type: in vivo, Brassica sp.; conditions: Brassica rapa, post-emergence, 336 h, two weeks after treatment
Procedure, shortened: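 A greenhouse post-emergence herbicide test on turnip. Seeds were sown on the surface of potting soil in 3' plastic pots, lightly covered with screened soil and watered from below. Planting was timed so seedlings had 1 or 2 true leaves above the cotyledons at spraying, done in a hood with a fixed nozzle. Control or injury was scored by eye after two weeks.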

[19] = tested on: Turnip (TP); assay: Pre-emergence herbicide test; assay type: in vivo, Brassica sp.; conditions: Brassica rapa, pre-emergence, 336 h, two weeks after treatment
Procedure, shortened: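 Turnip (Brassica sp.) seeds were surface sown in 3' plastic pots of potting soil, covered with a thin layer of screened soil, and sub-irrigated in greenhouse trays. Pots were seeded one day ahead of treatment, sprayed pre-emergence under a hood with a fixed nozzle and moving belt, then kept in the greenhouse.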

Compound CCN(C(=O)NC)c1nnc(C(F)(F)F)s1 [Example 37] has a pest or weed control at 2241.7 g/ha ([1]; 2 lb/acre) of 100%, a pest or weed control at 4483.4 g/ha ([1]; 4 lb/acre) of 100% and a pest or weed control at 8966.8 g/ha ([1]; 8 lb/acre) of 100%. It also gave a pest or weed control ([2]; 2 lb/acre) of 30%, a pest or weed control at 4483.4 g/ha ([2]; 4 lb/acre) of 50% and a pest or weed control at 8966.8 g/ha ([2]; 8 lb/acre) of 90%. For the same compound, the pest or weed control at 2241.7 g/ha ([3]; 2 lb/acre) was 80%, the pest or weed control at 4483.4 g/ha ([3]; 4 lb/acre) was 70% and the pest or weed control at 8966.8 g/ha ([3]; 8 lb/acre) was 90%. For the same compound, the pest or weed control at 2241.7 g/ha ([4]; 2 lb/acre) was 70%, the pest or weed control at 4483.4 g/ha ([4]; 4 lb/acre) was 80% and the pest or weed control at 8966.8 g/ha ([4]; 8 lb/acre) was 90%. The pest or weed control at 2241.7 g/ha ([5]; 2 lb/acre) was 20%, the pest or weed control at 4483.4 g/ha ([5]; 4 lb/acre) was 30% and the pest or weed control at 8966.8 g/ha ([5]; 8 lb/acre) was 90%. For the same compound, the pest or weed control ([6]; 2 lb/acre) was 30%, the pest or weed control at 4483.4 g/ha ([6]; 4 lb/acre) was 40% and the pest or weed control at 8966.8 g/ha ([6]; 8 lb/acre) was 90%. It also gave a pest or weed control at 2241.7 g/ha ([7]; 2 lb/acre) of 50%, a pest or weed control at 4483.4 g/ha ([7]; 4 lb/acre) of 60% and a pest or weed control at 8966.8 g/ha ([7]; 8 lb/acre) of 90%. It also gave a pest or weed control ([8]; 2 lb/acre) of 90%, a pest or weed control at 4483.4 g/ha ([8]; 4 lb/acre) of 90% and a pest or weed control at 8966.8 g/ha ([8]; 8 lb/acre) of 90%. The “herbicidal effectiveness / selectivity, in words” value [9] was “extremely effective when applied to a variety of crops and weed species”, the pest or weed control at 2241.7 g/ha ([10]; 2 lb/acre) was 90% and the pest or weed control at 4483.4 g/ha ([10]; 4 lb/acre) was 100%. It also gave a pest or weed control at 8966.8 g/ha ([10]; 8 lb/acre) of 100%, a pest or weed control at 2241.7 g/ha ([11]; 2 lb/acre) of 40% and a pest or weed control at 4483.4 g/ha ([11]; 4 lb/acre) of 40%. It also gave a pest or weed control at 8966.8 g/ha ([11]; 8 lb/acre) of 60%, a pest or weed control ([12]; 2 lb/acre) of 20% and a pest or weed control at 4483.4 g/ha ([12]; 4 lb/acre) of 30%. It also gave a pest or weed control at 8966.8 g/ha ([12]; 8 lb/acre) of 70%, a pest or weed control at 2241.7 g/ha ([13]; 2 lb/acre) of 30% and a pest or weed control at 4483.4 g/ha ([13]; 4 lb/acre) of 40%. The pest or weed control at 8966.8 g/ha ([13]; 8 lb/acre) was 50%, the pest or weed control ([14]; 2 lb/acre) was 20% and the pest or weed control at 4483.4 g/ha ([14]; 4 lb/acre) was 80%. For the same compound, the pest or weed control at 8966.8 g/ha ([14]; 8 lb/acre) was 80%, the pest or weed control at 2241.7 g/ha ([15]; 2 lb/acre) was 60% and the pest or weed control at 4483.4 g/ha ([15]; 4 lb/acre) was 70%. It also gave a pest or weed control at 8966.8 g/ha ([15]; 8 lb/acre) of 60%, a pest or weed control at 2241.7 g/ha ([16]; 2 lb/acre) of 90% and a pest or weed control at 4483.4 g/ha ([16]; 4 lb/acre) of 100%. The pest or weed control at 8966.8 g/ha ([16]; 8 lb/acre) was 100%, the pest or weed control at 2241.7 g/ha ([17]; 2 lb/acre) was 90% and the pest or weed control at 4483.4 g/ha ([17]; 4 lb/acre) was 100%. For the same compound, the pest or weed control at 8966.8 g/ha ([17]; 8 lb/acre) was 100%, the pest or weed control at 2241.7 g/ha ([18]; 2 lb/acre) was 90% and the pest or weed control at 4483.4 g/ha ([18]; 4 lb/acre) was 90%. The pest or weed control at 8966.8 g/ha ([18]; 8 lb/acre) was 100%, the pest or weed control at 2241.7 g/ha ([19]; 2 lb/acre) was 100% and the pest or weed control at 4483.4 g/ha ([19]; 4 lb/acre) was 100%. For the same compound, the pest or weed control at 8966.8 g/ha ([19]; 8 lb/acre) was 100%.
